The source made the active and inactive calls. The calls are words filed in the database; no cut-off is given here.
What was measured:
[1] = biological target: T1, Oxysterols receptor LXR-beta (Homo sapiens) (UniProt P55055); assay: Binding affinity to human LXRbeta at 4 uM by TR-FRET assay
T1 sequence (whole entry): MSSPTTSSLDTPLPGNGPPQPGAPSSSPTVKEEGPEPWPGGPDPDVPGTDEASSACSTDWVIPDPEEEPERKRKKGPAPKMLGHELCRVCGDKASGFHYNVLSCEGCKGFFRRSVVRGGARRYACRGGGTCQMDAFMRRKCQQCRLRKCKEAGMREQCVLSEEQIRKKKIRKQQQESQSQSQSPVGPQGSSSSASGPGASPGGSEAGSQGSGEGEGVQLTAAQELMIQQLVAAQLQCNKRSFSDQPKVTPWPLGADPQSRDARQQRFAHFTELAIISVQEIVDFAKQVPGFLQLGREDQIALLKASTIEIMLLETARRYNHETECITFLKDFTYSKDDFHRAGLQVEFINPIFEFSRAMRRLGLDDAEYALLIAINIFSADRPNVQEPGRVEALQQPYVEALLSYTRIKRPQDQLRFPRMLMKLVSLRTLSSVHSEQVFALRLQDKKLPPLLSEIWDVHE

[2] = tested on: Mesenchymal stem cell; assay: Induction of adipogenesis in human bone marrow-derived mesenchymal stem cells assessed as increase in adiponectin production at 20.4 uM after 7 days in presence of IDX; format: functional, cell-based
[3] = tested on: Mesenchymal stem cell; assay: Induction of adipogenesis in human bone marrow-derived mesenchymal stem cells assessed as increase in number and size of lipid droplets at 20 uM after 7 days in presence of IDX by oil red O staining based inverted microscopic method; format: functional
[4] = biological target: T2, Peroxisome proliferator-activated receptor alpha (Homo sapiens) (UniProt Q07869); assay: Displacement of Fluormone-Pan-PPAR Green from human GST-tagged PPARalpha LBD at 20 uM by TR-FRET assay relative to control
T2 sequence (whole entry): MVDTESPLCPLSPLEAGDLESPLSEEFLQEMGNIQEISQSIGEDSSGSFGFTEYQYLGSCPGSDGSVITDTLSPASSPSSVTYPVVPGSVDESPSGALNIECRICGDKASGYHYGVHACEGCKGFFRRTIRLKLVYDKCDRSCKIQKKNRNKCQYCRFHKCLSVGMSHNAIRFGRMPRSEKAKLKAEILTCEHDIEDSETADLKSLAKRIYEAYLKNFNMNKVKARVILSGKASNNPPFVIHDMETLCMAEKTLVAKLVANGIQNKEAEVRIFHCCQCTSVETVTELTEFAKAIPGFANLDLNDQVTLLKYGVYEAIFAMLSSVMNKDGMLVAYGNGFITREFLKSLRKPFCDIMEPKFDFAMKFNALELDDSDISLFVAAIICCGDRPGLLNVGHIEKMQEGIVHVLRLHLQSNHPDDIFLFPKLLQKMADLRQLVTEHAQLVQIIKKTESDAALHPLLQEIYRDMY

[5] = biological target: T3, Peroxisome proliferator-activated receptor gamma (Homo sapiens) (UniProt P37231); assay: Displacement of Fluormone-Pan-PPAR Green from human GST-tagged PPARgamma LBD at 20 uM by TR-FRET assay relative to control
T3 sequence (whole entry): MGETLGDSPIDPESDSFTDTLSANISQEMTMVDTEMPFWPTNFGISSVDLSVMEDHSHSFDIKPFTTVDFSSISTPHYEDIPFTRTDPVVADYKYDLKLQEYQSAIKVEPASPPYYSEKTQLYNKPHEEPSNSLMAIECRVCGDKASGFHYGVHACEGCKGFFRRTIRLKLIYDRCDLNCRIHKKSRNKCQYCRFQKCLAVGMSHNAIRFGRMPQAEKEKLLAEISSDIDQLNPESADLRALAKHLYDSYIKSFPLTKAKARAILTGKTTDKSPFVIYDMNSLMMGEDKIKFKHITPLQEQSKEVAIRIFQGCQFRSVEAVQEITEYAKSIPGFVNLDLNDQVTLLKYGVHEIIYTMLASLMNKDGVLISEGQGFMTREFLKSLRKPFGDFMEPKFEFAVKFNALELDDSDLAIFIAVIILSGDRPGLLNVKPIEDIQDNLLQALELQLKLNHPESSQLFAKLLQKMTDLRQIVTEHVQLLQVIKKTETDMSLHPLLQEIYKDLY

[6] = biological target: T4, Peroxisome proliferator-activated receptor delta (Homo sapiens) (UniProt Q03181); assay: Transactivation of human GST-tagged PPARdelta LBD assessed as fluorescein-C33 coactivator recruitment at 10 uM by TR-FRET assay
T4 sequence (whole entry): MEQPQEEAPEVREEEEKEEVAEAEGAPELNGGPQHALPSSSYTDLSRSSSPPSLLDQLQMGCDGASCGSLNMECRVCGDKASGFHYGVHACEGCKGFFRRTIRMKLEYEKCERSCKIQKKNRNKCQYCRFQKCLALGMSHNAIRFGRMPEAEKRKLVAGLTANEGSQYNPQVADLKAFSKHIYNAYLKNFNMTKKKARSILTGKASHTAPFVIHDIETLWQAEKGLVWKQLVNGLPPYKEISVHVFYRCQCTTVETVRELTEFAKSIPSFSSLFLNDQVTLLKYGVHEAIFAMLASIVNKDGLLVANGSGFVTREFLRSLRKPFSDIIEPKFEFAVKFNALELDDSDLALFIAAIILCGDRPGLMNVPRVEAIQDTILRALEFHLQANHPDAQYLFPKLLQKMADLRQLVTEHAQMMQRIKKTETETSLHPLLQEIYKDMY

[7] = Induction of adipogenesis in human bone marrow-derived mesenchymal stem cells assessed as adiponectin level at 20 uM measured on day 7 after 48 hrs by ELISA; format: functional, Mesenchymal stem cell
[8] = Induction of adipogenesis in human bone marrow-derived mesenchymal stem cells assessed as adiponectin level at 4 uM measured on day 7 after 48 hrs by ELISA; format: functional, Mesenchymal stem cell
[9] = biological target: Peroxisome proliferator-activated receptor delta (Homo sapiens) (UniProt Q03181); assay: Antagonist activity at human GST-tagged PPARdelta LBD assessed as reduction in GW501516-induced fluorescein-C33 coactivator recruitment at 1 uM by TR-FRET assay relative to control

CNC(=O)[C@H]1O[C@@H](n2cnc3c(NCc4cccc(I)c4)ncnc32)[C@H](O)[C@@H]1O [IB-MECA]
Activity [1]: inactive | Activity [2]: Active | Activity [3]: Active | inhibition [4]: 16% | inhibition [5]: 22.2% | Activity [6]: inactive | Activity [7]: 216 pg/mL | Activity [8]: 117 pg/mL | inhibition [9]: 14%

— ChEMBL document CHEMBL4017496 (J Med Chem, 2017)
